From patent publication US11999941B2, “Composition suitable for protecting microorganisms” (SOCIÉTÉ DES PRODUITS NESTLÉ S.A., priority 2015, dated 2024)

Test system: Bifidobacterium longum BL999
Experiment: Pre-screening of single ingredients as protective agent: viability loss after spray-drying, storage and reconstitution
Format: cell-based
Conditions: for viability loss after 8 weeks: 8 weeks storage at T=37° C.; for viability loss after 8 weeks / storage stability / losses during storage and reconstitution: aw=0.22, after spray-drying; for protective effect during drying: individual ingredient 18.2 wt % with maltodextrin DE12 and sodium ascorbate, compared to the reference; for storage stability / losses during storage and reconstitution: storage at T=37° C.
Experimental: A fermentation medium suitable for the growth of Bifidobacterium longum BL999 was inoculated with 2% frozen-thawed bacteria.
The centrifuged biomass was then conditioned according to the following process. […] Then 300 g of centrifuged biomass were filled into a beaker, which was placed in an ice water bath. The total solids content of the biomass was measured and the protective agent solution was added at a ratio of protective agents to biomass of 55/45 (based on dry weight). The mixture was gently agitated in the ice water bath for one hour. The pH was then adjusted to pH7.
The conditioned concentrate was then spray-dried on a lab-scale spray-dryer (Buechi, B-290, Flawil, Switzerland). The air temperature was 140° C. and the tower temperature was adjusted by the concentrate flow to T=70° C. During drying, the beaker containing the concentrate was cooled in an ice water bath.
In a first round of trials, 38 ingredients were selected as potential protective agents. The effect of those ingredients on the stability of Bifidobacterium longum BL999 was tested by spray-drying biomass with a protective agent comprising maltodextrin DE12, sodium ascorbate and one single additional ingredient from the list of 38 compounds to be screened in the following concentrations:
This control was used as a reference to evaluate the effect of the protective agents on the stability of Bifidobacterium longum BL999 during spray-drying, storage and reconstitution.
The 38 culture powders and the control were prepared as described above, the conditioning being carried out with one of the 38 protective agents.
The cell concentration of B. longum in the powder was detected by classical plating methods. Such classical plating methods are summarized in the microbiology book: James Monroe Jay, Martin J. Loessner, David A. Golden. […] Modern food microbiology. 7th edition, Springer Science, New York, N.Y. The cells were counted in the concentrate before drying, in the culture powder directly after drying and after 2, 3, 4, 6, 8 and/or 12 weeks storage in a climatic chamber at T=37° C. above saturated potassium acetate solution (aw=0.22). The cell counts after drying and after storage were determined after reconstitution of the powder with a reconstitution medium, as known by the person skilled in the art, who is well aware of the above-mentioned plating methods.
The following formulae were used for the evaluation of the data:
where X0 is the number of micro-organisms at time t=0 and Xt the number of microorganisms at time t. When the microbiological counts were measured in k replicates, x0 is the average number of micro-organisms at time t=0 and, xt is the average number of micro-organisms at time t, the average log loss at time t is given by:
The tested individual ingredients were selected among several groups of molecules: sugars, sugar alcohols, amino acids and proteins. All tested ingredients within a group were spray-dried on the same day and the reference was spray dried again with each group, also on the same day.

[1] = individual ingredient 18.2 wt %

Row | SMILES | viability loss after 8 weeks [1] | protective effect during drying (spray-drying) | storage stability / losses during storage and reconstitution [1] | further results
1 | O[C@H]1[C@H](O)[C@@H](O)[C@H](O)[C@@H](O)[C@H]1O [myo-inositol] | lowest |  |  | 
2 | OCC(O)CO [glycerol] |  | light protective effect | majority of the bacteria of this variant died already after two weeks storage | 
3 | NCCCC[C@H](N)C(=O)O [lysine, L-lysine] |  |  | lowest losses during storage and reconstitution | 
4 | N=C(N)NCCC[C@H](N)C(=O)O [arginine, L-arginine] |  |  | lowest losses during storage and reconstitution | 
5 | O=C1O[C@H]([C@@H](O)CO)C([O-])=C1O.[Na+] [sodium ascorbate] |  | does not show significant effect on the bacterial survival during the drying process |  | 
6 | OC[C@@H](O)[C@@H](O)[C@H](O)[C@@H](O)CO [sorbitol] | lowest | light protective effect |  | 
7 | OC[C@@H](O)[C@H](O)[C@@H](O)CO [xylitol] |  | light protective effect |  | 
8 | C[C@H](N)C(=O)O [alanine, L-alanine] |  |  | lowest losses during storage and reconstitution | 
9 | OC[C@H]1O[C@@](CO)(O[C@H]2O[C@H](CO)[C@@H](O)[C@H](O)[C@H]2O)[C@@H](O)[C@@H]1O [sucrose] |  |  | most efficient ingredient | 
10 | OC[C@@H](O)[C@@H](O)[C@H](O)[C@H](O)CO [mannitol] | lowest | light protective effect |  | 
11 | OC[C@@H](O)[C@@H](O[C@@H]1O[C@H](CO)[C@H](O)[C@H](O)[C@H]1O)[C@H](O)[C@@H](O)CO [lactitol] | lowest |  |  | 
12 | N[C@@H](CS)C(=O)O [cysteine, L-cysteine] |  |  | lowest losses during storage and reconstitution | viability loss during drying (spray-drying, protective agent of maltodextrin DE12 68.2 wt %, sodium ascorbate 13.6 wt %, individual ingredient 18.2 wt %): 0.2 log
